This note sets out measurements from ChEMBL document CHEMBL3044560, “Microwave-assisted synthesis and antimicrobial activity of some imidazo[2,1-b][1,3,4]thiadiazole derivatives” (2012).

The test system of assay [1] is Candida albicans. Kind of assay: Antimicrobial activity against Candida albicans at 30 ug/ml after 72 hr by cup-plate method. In kind it is functional. Conditions: read-out: IZ.
Assay [2] concerns Candida albicans. Kind of assay: Antimicrobial activity against Candida albicans at 5 ug/ml after 72 hr by cup-plate method. In kind it is functional. As to conditions: read-out: IZ.
Assay [3] has as its system Staphylococcus aureus. Kind of assay: Antimicrobial activity against Staphylococcus aureus at 75 ug/ml after 24 hr by cup-plate method. The format is functional.
For assay [4], the system named is Candida albicans. Kind of assay: Antimicrobial activity against Candida albicans at 50 to 70 ug/ml after 72 hr by cup-plate method. In kind it is functional, organism-based.
Assay [5] relates to Staphylococcus aureus. Kind of assay: Antimicrobial activity against Staphylococcus aureus at 10 ug/ml after 24 hr by cup-plate method. As to conditions: read-out: IZ.
The subject of assay [6] is Klebsiella. Kind of assay: Antimicrobial activity against Klebsiella at 10 ug/ml after 24 hr by cup-plate method. In kind it is functional. Conditions: read-out: IZ.
Assay [7] relates to Candida albicans. Kind of assay: Antimicrobial activity against Candida albicans at 50 ug/ml after 72 hr by cup-plate method. In kind it is functional. Conditions: read-out: IZ.
The subject of assay [8] is Klebsiella. Kind of assay: Antimicrobial activity against Klebsiella at 50 ug/ml after 24 hr by cup-plate method. The format is functional.

The source made the active and inactive calls. The rule behind the calls is not given here.

As to `OC(Cn1cncn1)(Cn1cncn1)c1ccc(F)cc1F` [FLUCONAZOLE], the zone of inhibition at 30 µg/mL in assay [1] came out at 22 mm.

For the compound `O=[N+]([O-])c1ccc(Cc2nn3cc(-c4ccc(Br)cc4)nc3s2)cc1`, in assay [2], the zone of inhibition at 5 µg/mL came to 14 mm. For the same compound, the “inhibition zone (IZ)” value in assay [3] and in assay [4] was “inactive” in each case.

Turning to `O=C(O)c1cn(C2CC2)c2cc(N3CCNCC3)c(F)cc2c1=O` [CIPROFLOXACIN], the zone of inhibition at 10 µg/mL in assay [5] and in assay [6] was 28 mm in each case.

As to `O=[N+]([O-])c1ccc(Cc2nn3cc(-c4ccc(F)cc4)nc3s2)cc1`, the “inhibition zone (IZ)” value in assay [3] and in assay [8] was “inactive” throughout. Moreover, the zone of inhibition at 50 µg/mL in assay [7] is 22 mm.
